Assay results taken from US9845297B2, “Antimicrobial compounds and methods of making and using the same” (Melinta Therapeutics, Inc., priority 2009, dated 2017).

Test system: Eschericia coli strain ATCC25922
Assay: standard microdilution assay to determine minimum inhibitory concentrations (MICs)
Format: cell-based
Details: Escherichia coli, ATCC25922, Eschericia coli strain ATCC25922, standard microdilution assay; read-out: E. coli ATCC25922 MIC
How it was run: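 Broth microdilution per CLSI protocols, typically 100 µL final volume, against E. coli ATCC25922. MIC values scored as +/− against a cutoff of 16 micrograms/ml.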

Compound	MIC [µg/mL]
NCCCN(CCCc1cccnc1)Cc1ccc(-c2c[nH]c(NC(=O)Nc3cc(F)c(F)cc3F)nc2=O)cc1 [Compound 399]	> 16
NCCCN[C@@H]1CCN(CCc2c[nH]c(NC(=O)Nc3cccc(Cl)c3Cl)nc2=O)C1 [Compound 385]	> 16
N=C(N)NCCC[C@@H](CCCn1ccc(NC(=O)Nc2ccc(F)c(F)c2)nc1=O)NCCCN [Compound 160]	> 16
NCCCNCc1ccc(-c2c[nH]c(Nc3ccc(C(F)(F)F)cc3)nc2=O)cc1F [Compound 488]	> 16
NCCCN[C@@H]1CCCCC1NC(=O)Nc1nc(=O)c(-c2ccc(CN)cc2)c[nH]1 (stereo partly shown) [Compound 1338]	> 16
N=C(N)NCC(NCCCN)c1ccc(-n2ccc(NC(N)=O)nc2=O)cc1 (stereo not shown) [Compound 156]	> 16
N=C(N)NCCCNCc1ccc(-c2c[nH]c(NC(=O)Nc3ccccc3OC(F)(F)F)nc2=O)cn1 [Compound 594]	< 16
NCCCN(Cc1ccncc1)Cc1ccc(-c2c[nH]c(NC(=O)Nc3ccccc3OC(F)(F)F)nc2=O)cc1 [Compound 338]	< 16
N=C(N)NCCCNCc1ccc(-c2c[nH]c(NC(=O)NCCOc3cc(F)c(F)cc3F)nc2=O)cc1 [Compound 739]	> 16
NCCCNCc1ccc(-c2c[nH]c(NC(=O)NCCc3ccc(Cl)cc3Cl)nc2=O)cc1F [Compound 420]	< 16
NCCCCCN1CCC(c2c[nH]c(NC(=O)Nc3cccc(Cl)c3F)nc2=O)CC1 [Compound 549]	> 16
NCCCN1CCCN(c2c[nH]c(NC(=O)Nc3ccccc3OC(F)(F)F)nc2=O)CC1 [Compound 492]	> 16
NCc1cn(-c2ccc(-n3cnc(NC(N)=O)nc3=O)cc2)nn1 [Compound 140]	> 16
N=C(N)NCCCCCN1CCN(c2c[nH]c(NC(=O)Nc3cccc(Cl)c3F)nc2=O)CC1 [Compound 502]	> 16
N=C(N)NCCC[C@H](N)CCCn1ccc(NC(N)=O)nc1=O [Compound 121]	> 16
NCCCCN1CCC(c2c[nH]c(NC(=O)Nc3cc(F)c(F)cc3F)nc2=O)CC1 [Compound 535]	> 16
NCCCN(CCCN)Cc1ccc(-c2c[nH]c(NC(=O)Cc3ccc(C(F)(F)F)cc3)nc2=O)cc1 [Compound 205]	> 16
CN(C(=O)C[C@@H](N)CCCNC(=N)N)C1CNC(NC(N)=O)=NC1=O (stereo partly shown) [Compound 100]	> 16
NCCCNCc1ccc(-c2c[nH]c(NC(=O)Nc3ccccc3OC(F)(F)F)nc2=O)cn1 [Compound 553]	> 16
NCCCNCc1ccc(-c2c[nH]c(NC(=O)NCCc3ccc(Cl)cc3)nc2=O)cc1F [Compound 423]	> 16
NCCCN(CCCO)Cc1ccc(-c2c[nH]c(NC(=O)Nc3cc(F)c(F)cc3F)nc2=O)cc1 [Compound 331]	> 16
N=C(N)NCCCN(CCCN)Cc1ccc(-c2c[nH]c(NC(=O)Nc3ccccc3OC(F)(F)F)nc2=O)cc1 [Compound 349]	< 16
NCc1ccc(-c2c[nH]c(NC(=O)NC3CCCC[C@H]3NCC(F)(F)F)nc2=O)cc1 (stereo partly shown) [Compound 1357]	> 16
COc1cc([N+](=O)[O-])ccc1NC(=O)Nc1nc(=O)c(-c2ccc(CNCCCN)c(F)c2)c[nH]1 [Compound 415]	> 16
N=C(N)NCCC[C@H](N)CC(=O)N(CCCc1cocn1)C1CNC(NC(N)=O)=NC1=O (stereo partly shown) [Compound 112]	> 16
NCCCN(CCCN)Cc1ccc(-c2c[nH]c(NC(=O)c3ccc(Cl)cc3)nc2=O)cc1 [Compound 173]	> 16
NCCCNCc1ccc(-c2c[nH]c(NC(=O)Nc3cccc(Cl)c3F)nc2=O)cn1 [Compound 552]	> 16
O=C(Nc1nc(=O)c(-c2ccc(CNCCCO)cc2)c[nH]1)Nc1cc(F)c(F)cc1F [Compound 276]	> 16

Compound	MIC [µg/mL]
NCCCN(CCCN)Cc1ccc(-c2c[nH]c(Nc3nc4ccccc4[nH]3)nc2=O)cc1F [Compound 351]	< 16
NCCC[C@H](N)CCCn1ccc(N)nc1=O [Compound 116]	> 16
NCCCN(Cc1ccc(-c2c[nH]c(NC(=O)Nc3cc(F)c(F)cc3F)nc2=O)cc1)CC1CC1 [Compound 344]	< 16
O=C(Nc1nc(=O)c(-c2ccc(CNCc3nccs3)cc2)c[nH]1)Nc1cc(F)c(F)cc1F [Compound 330]	> 16
NCCCN(CCCN)Cc1c(F)cc(-c2c[nH]c(NC(=O)Nc3cccc(Cl)c3Cl)nc2=O)cc1F [Compound 297]	< 16
NCCCN(CCCc1cccnc1)Cc1ccc(-c2c[nH]c(NC(=O)Nc3ccccc3OC(F)(F)F)nc2=O)cc1 [Compound 372]	> 16
CN1CCN(C2CCN(c3ccc(NC(=O)Nc4nc(=O)c(-c5ccc(CN(CCCN)CCCN)cc5)c[nH]4)cc3)CC2)CC1 [Compound 209]	< 16
NCCCCN1CCC(c2c[nH]c(NC(=O)Nc3cccc(Cl)c3F)nc2=O)CC1 [Compound 536]	> 16
O=C(Nc1nc(=O)c(-c2ccc(CNCCCF)c(Cl)c2)c[nH]1)Nc1ccccc1OC(F)(F)F [Compound 271]	> 16
N=C(N)NCCCNCc1ccc(-c2c[nH]c(NC(=O)NCCCc3cc(F)c(F)cc3F)nc2=O)cc1F [Compound 582]	> 16
NCCCNCc1ccc(-c2c[nH]c(NC(=O)Nc3ccccc3OC(F)(F)F)nc2=O)cc1Cl [Compound 242]	< 16
Cc1cc([N+](=O)[O-])ccc1NC(=O)Nc1nc(=O)c(-c2ccc(CNCCCN)c(F)c2)c[nH]1 [Compound 495]	> 16
N=C(N)NCCCNCc1ccc(-c2c[nH]c(NC(=O)NC3CN(C(=O)c4cc(F)cc(F)c4F)C3)nc2=O)cc1 [Compound 780]	> 16
N=C(N)NCCCNCc1ccc(-c2c[nH]c(NC(=O)Nc3cc(F)c(F)cc3F)nc2=O)cc1 [Compound 350]	< 16
NCCCNCc1ccc(-c2c[nH]c(NC(=O)Nc3cc(Cl)ccc3Cl)nc2=O)cc1F [Compound 480]	< 16
Cn1ncc(C(=O)Nc2ccn(CCC[C@H](CCCNC(=N)N)NCCCN)c(=O)n2)c1Cl [Compound 163]	< 16
CN(C(=O)C[C@H](CCCNC(=N)N)NCCCN)C1CNC(NC(N)=O)=NC1=O (stereo partly shown) [Compound 106]	< 16
NCCCNCc1ccc(-c2c[nH]c(NC(=O)Nc3cc(F)c(F)cc3F)nc2=O)cc1C(F)(F)F [Compound 266]	< 16
CSCCNCc1ccc(-c2c[nH]c(NC(=O)NCc3ccc(F)cc3)nc2=O)cc1Cl [Compound 267]	> 16
NCCCNCc1ccc(-c2c[nH]c(NC(=O)Nc3ccc(C(F)(F)F)cc3)nc2=O)cc1C(F)(F)F [Compound 273]	> 16
CN(C)c1ccc(C(=O)Nc2ccn(CCCC(CCCNC(=N)N)NCCCN)c(=O)n2)cc1 (stereo not shown) [Compound 176]	< 16
N=C(N)NCCC[C@H](N)CCCn1cnc(N)nc1=O [Compound 114]	> 16
N=C(N)NCCCNCc1ccc(-c2c[nH]c(NC(=O)NCCc3ccccc3OC(F)(F)F)nc2=O)cc1F [Compound 513]	> 16
NCCCCCN1CCN(c2c[nH]c(NC(=O)Nc3cc(F)c(F)cc3F)nc2=O)CC1 [Compound 504]	> 16
NC(=O)Nc1ccn(CCC[C@@H](N)CCCO)c(=O)n1 [Compound 123]	> 16
NCCCN1CCN(C(=O)Cc2c[nH]c(NC(=O)Nc3ccccc3OC(F)(F)F)nc2=O)CC1 [Compound 405]	> 16
NCCCN(Cc1ccc(-c2c[nH]c(NC(=O)Nc3ccccc3OC(F)(F)F)nc2=O)cc1)Cc1nccs1 [Compound 340]	> 16
